Tests used:
[1] = tested on: C57BL/6J mice fed a high-fat diet; experiment: In vivo liver toxicity: plasma AST and ALT; design: species or system mouse; conditions: male C57BL/6J mice, HFD, 30 mg/kg/day in diet, 13 weeks; mean ± SE, n = 11–12
Source text: Nine-week old male C57BL/6J mice, obtained from The Jackson Laboratory (Bar Harbor, ME, USA), were housed individually in plastic cages under a 12–12-hr light-dark cycle. They were assigned randomly to four groups consisting of 12 mice each. One group (control) was fed a HFD (Dyets Inc., Bethlehem, PA, USA) containing 60%, 20% and 20% total calories from fat, carbohydrate and protein, respectively, and the other three groups were fed the HFD containing XN, DXN, or TXN. The test compounds were dissolved in an isotropic mixture of oleic acid:propylene glycol:Tween 80, 0.9:1:1 by weight (OPT) before incorporation into the HFD. The control diet contained an identical amount of OPT. All diets were prepared in pellet form by Dyets, Inc. (Bethlehem, PA, USA). The mouse diets were formulated to deliver a dose of 30 mg test compound per kg body weight per day. Food intake was measured three times per week and body weights were recorded weekly. At the end of 13 weeks of feeding, the mice were euthanized and blood, liver and skeletal muscle were collected for analyses. All animal protocols were approved by Institutional Animal Care and Use Committee (IACUC) at Oregon State University. Animal experiments were carried out in accordance with the relevant guidelines and regulations.
Plasma triglycerides and total cholesterol were analyzed with commercially available kits (Fisher-Scientific, Pittsburgh, PA, USA). Plasma glucose was analyzed by a test kit obtained from Wako Diagnostics (Mountain View, CA, USA). Plasma insulin and leptin were analyzed by ELISA kits purchased from Alpco Diagnostics (Salem, NH, USA) and Crystal Chem (Downers Grove, IL, USA), respectively. Homeostasis Model Assessment of Insulin Resistance (HOMA-IR) was calculated as follows: fasting plasma insulin concentration (mU/L) × fasting plasma glucose level (mmol/L)/22.5[95]. Plasma levels of AST and ALT were measured using commercially-available kits (Bioo Scientific Corp., Austin, TX, USA) as indicators of in vivo liver toxicity.

[2] = tested on: C2C12 cells; experiment: Seahorse OCR and ECAR measurements (mitochondrial uncoupling); assay type: cell-based, mouse; conditions: for Increase of OCR in the presence of oligomycin (uncoupled respiration): 5 µM compound after 1 μM oligomycin, compared to the baseline, five independent experiments; for ECAR after addition of compound: 5 µM final concentration, after oligomycin 1 μM
Method: OCR and ECAR measurements were performed with a Seahorse XF 24 Analyzer (Agilent Technologies, Inc., Santa Clara, CA, USA). C2C12 cells were plated in culture medium at a density of 40,000 cells per well in a 24-well plate. The cells were then allowed to adhere for 24 h (37 °C, 5% CO2). Prior to the assay, the cells were washed with freshly prepared running medium consisting of Seahorse XF Assay medium (Agilent Technologies, Inc., Santa Clara, CA, USA), 10 mM glucose and 1 mM sodium pyruvate. The pH of the medium was adjusted to 7.4 with 1 M NaOH. The cells were then equilibrated for one hour at 37 °C without CO2. […] To overcome this problem, the test compounds were first dissolved in ethanol and the resulting solution was diluted 100-fold in treatment medium (9 parts XF media and 1 part 10% FBS media) which was added directly to cells. The treatment medium contained 1% FBS and after a further 10-fold dilution into the media in wells, only 0.1% FBS was present during OCR and ECAR measurements. The final concentrations in the wells were: 1 μM for oligomycin, and 5 μM for XN, DXN or TXN. The concentration of oligomycin and the cell density used were selected based on preliminary experiments. Ethanol was added to the control wells not to exceed a final concentration of 0.1% (vehicle control). OCR and ECAR were measured at 9-min intervals.
Seahorse data: to show a consistent baseline, OCR values (in pmol/min/mg protein) and ECAR values (in mpH/min/mg protein) for each value were divided, prior to statistical analysis, by the average of the four pre oligomycin treatment values (0, 8, 17, and 25 min) for the corresponding well and are shown as % pre oligomycin values. To account for repeated measures within wells over time, we utilized a repeated-measures-in-time design using ANOVA procedures in PROC MIXED (SAS). Fixed effects in the model were treatment (control, 5 μM XN, 5 μM DXN, and 5 μM TXN for the compound study), time (0, 8, 17, 25, 34, 43, 52, 60, 69, 78, 86, and 95 min), and their interaction. The random effect was the experiment (5 experiments for the compound study). To account for repeated measures within wells over time, a first order homogeneous variance-covariance matrix [AR(1)] was fitted for each well. Using the ESTIMATE statement, a priori contrasts were constructed by comparing the changes in compound treated cells from the last two time points prior to compound treatment (average 52 and 60 min) to the changes in control cells during the same time-period. This was carried out for each compound and dosage for 69, 78, 86, and 95 min separately and for all four time points combined. Results are shown in the text and the graphs as least squares means and their corresponding SEM (standard error of mean). […]

[3] = target: T1, full-length purified human estrogen receptor ERα (Homo sapiens, UniProt P03372); experiment: ERα competitive radiometric binding assay; conditions: RBA = IC50[estradiol]/IC50[compound] × 100, estradiol = 100; 2 nM [3H]-estradiol tracer, 18–24 h at 0 °C
T1 construct: full-length purified human estrogen receptors ERα and ERβ
T1 sequence (P03372 1-595): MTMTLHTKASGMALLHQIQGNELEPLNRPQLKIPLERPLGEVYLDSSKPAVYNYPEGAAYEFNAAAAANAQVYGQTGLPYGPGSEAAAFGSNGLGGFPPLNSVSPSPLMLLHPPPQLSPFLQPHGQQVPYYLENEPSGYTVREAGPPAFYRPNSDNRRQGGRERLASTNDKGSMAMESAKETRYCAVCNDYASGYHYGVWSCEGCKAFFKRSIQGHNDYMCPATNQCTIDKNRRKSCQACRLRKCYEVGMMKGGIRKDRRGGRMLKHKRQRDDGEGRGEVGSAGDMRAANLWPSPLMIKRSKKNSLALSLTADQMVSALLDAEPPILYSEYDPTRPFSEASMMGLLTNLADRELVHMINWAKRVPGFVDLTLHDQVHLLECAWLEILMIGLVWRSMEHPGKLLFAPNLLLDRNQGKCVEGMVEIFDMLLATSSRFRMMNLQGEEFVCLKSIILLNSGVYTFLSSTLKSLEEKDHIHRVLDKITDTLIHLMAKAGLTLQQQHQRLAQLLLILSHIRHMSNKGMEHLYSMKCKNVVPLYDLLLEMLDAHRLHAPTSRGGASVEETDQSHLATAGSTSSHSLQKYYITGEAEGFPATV
Method: The receptors and ligands were incubated for 18–24 h at 0 °C and then the receptor–ligand complexes separated using hydroxyapatite (BioRad, Hercules, CA, USA).

SMILES	Plasma ALT [1]	Plasma AST [1]	Increase of OCR in the presence of oligomycin (uncoupled respiration) [2]	ECAR after addition of compound [2]	RBA ERα (relative binding affinity) [3]
COc1cc(O)c(CC=C(C)C)c(O)c1C(=O)CCc1ccc(O)cc1 [DXN, α,β-Dihydroxanthohumol]	55.8 ± 6.1 U/L	105.6 ± 6.5 U/L	28.7 ± 6.9%	significant decrease	0.0029 ± 0.0007
COc1cc(O)c(CCC(C)C)c(O)c1C(=O)CCc1ccc(O)cc1 [TXN, tetrahydroxanthohumol]	56.8 ± 10.5 U/L	110.5 ± 6.0 U/L	56.8 ± 6.9%	significant decrease	0.0033 ± 0.001
COc1cc(O)c(CC=C(C)C)c(O)c1C(=O)/C=C/c1ccc(O)cc1 [XN, 3′-[3,3-dimethylallyl]-2′,4′,4-trihydroxy-6′-methoxychalcone]	68.8 ± 6.8 U/L	112.3 ± 3.3 U/L	–	significant decrease	0.0021 ± 0.0003

From article PMC5766630, “Non-estrogenic Xanthohumol Derivatives Mitigate Insulin Resistance and Cognitive Impairment in High-Fat Diet-induced Obese Mice” (Scientific Reports, 2018)
